Experiment [1] has as its target ALK tyrosine kinase receptor (Homo sapiens, UniProt Q9UM73). Briefly: Selectivity interaction (ProQinase) EUB0000171b ALK. The conditions noted are these: at 1 µM.
Experiment [2] deals with Tyrosine-protein kinase JAK1 (Homo sapiens, UniProt P23458). Briefly: Selectivity interaction (ProQinase) EUB0000171b JAK1.
Experiment [3] deals with T1, Serine/threonine-protein kinase 3 (Homo sapiens) (UniProt Q13188).
T1 sequence (whole entry): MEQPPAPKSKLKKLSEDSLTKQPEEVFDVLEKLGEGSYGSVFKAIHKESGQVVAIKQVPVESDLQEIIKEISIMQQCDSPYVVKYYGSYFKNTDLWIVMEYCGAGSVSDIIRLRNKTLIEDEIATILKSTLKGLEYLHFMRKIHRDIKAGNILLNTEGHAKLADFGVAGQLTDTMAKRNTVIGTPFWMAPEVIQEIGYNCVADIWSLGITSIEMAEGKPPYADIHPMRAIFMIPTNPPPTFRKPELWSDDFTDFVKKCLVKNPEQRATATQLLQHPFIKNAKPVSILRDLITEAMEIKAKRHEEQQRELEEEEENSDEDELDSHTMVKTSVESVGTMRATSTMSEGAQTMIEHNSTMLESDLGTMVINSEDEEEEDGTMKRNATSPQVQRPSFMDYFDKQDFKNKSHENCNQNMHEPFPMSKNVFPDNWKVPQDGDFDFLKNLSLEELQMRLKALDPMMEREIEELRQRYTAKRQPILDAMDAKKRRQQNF
Briefly: Selectivity interaction (Kinase panel (DSF assay)) EUB0001558a STK3. (In general: DSF heats the sample and reads unfolding from a dye or from intrinsic fluorescence.)

Experiment [4] concerns the target T2, Ankyrin repeat and protein kinase domain-containing protein 1 (Homo sapiens) (UniProt Q8NFD2).
T2 sequence (whole entry): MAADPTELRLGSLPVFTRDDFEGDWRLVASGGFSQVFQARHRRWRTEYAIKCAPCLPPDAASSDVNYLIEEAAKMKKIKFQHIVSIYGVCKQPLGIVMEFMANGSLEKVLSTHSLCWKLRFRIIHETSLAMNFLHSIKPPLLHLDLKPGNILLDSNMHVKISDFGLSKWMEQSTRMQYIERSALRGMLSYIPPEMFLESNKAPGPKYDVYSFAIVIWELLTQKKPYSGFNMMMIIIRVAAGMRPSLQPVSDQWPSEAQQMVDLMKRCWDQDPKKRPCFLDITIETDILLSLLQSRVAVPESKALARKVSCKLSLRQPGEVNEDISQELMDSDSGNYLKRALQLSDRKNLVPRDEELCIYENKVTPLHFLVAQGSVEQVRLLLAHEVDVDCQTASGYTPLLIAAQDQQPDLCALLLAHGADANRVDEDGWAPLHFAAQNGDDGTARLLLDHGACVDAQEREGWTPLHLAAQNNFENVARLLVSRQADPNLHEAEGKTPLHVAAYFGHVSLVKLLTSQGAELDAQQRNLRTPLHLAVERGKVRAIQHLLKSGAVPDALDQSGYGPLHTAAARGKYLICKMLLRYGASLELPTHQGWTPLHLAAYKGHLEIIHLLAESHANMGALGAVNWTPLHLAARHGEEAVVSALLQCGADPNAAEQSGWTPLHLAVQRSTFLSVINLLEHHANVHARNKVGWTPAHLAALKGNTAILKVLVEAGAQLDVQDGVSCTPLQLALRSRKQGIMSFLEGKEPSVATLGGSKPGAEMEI
Briefly: Selectivity interaction (KinomeScan (DiscoverX)) EUB0000092b ANKK1. The conditions noted are these: at 10 µM.

In experiment [5] the target is Ribosomal protein S6 kinase alpha-2 (Homo sapiens) (UniProt Q15349). Briefly: Selectivity interaction (KinomeScan (DiscoverX)) EUB0001049a RPS6KA2. To be noted: at 1 µM.
The target of experiment [6] is MAP/microtubule affinity-regulating kinase 3 (Homo sapiens) (UniProt P27448). Briefly: Selectivity interaction (KinomeScan (DiscoverX)) EUB0000666a MARK3. The conditions noted are these: at 10 µM.
Experiment [7] concerns the target Tyrosine-protein kinase Fgr (Homo sapiens) (UniProt P09769). Briefly: Selectivity interaction (Kinase panel (Z-LYTE Assay)) EUB0001632a FGR. To be noted: at 10 µM.
In experiment [8] the target is Polycomb protein SUZ12 (Homo sapiens) (UniProt Q15022). The conditions noted are these: at 10 µM.
Experiment [9] deals with Phosphatidylinositol 3-kinase catalytic subunit type 3 (Homo sapiens, UniProt Q8NEB9). Briefly: Selectivity interaction (ActivX KiNativ screen (kinase selectivity in THP-1 cell lysates)) EUB0000639a PIK3C3. The class given is subcellular. To be noted: lysate, at 0.01 µM.
The target in experiment [10] is T3, Receptor-interacting serine/threonine-protein kinase 4 (Homo sapiens) (UniProt P57078).
T3 sequence (whole entry): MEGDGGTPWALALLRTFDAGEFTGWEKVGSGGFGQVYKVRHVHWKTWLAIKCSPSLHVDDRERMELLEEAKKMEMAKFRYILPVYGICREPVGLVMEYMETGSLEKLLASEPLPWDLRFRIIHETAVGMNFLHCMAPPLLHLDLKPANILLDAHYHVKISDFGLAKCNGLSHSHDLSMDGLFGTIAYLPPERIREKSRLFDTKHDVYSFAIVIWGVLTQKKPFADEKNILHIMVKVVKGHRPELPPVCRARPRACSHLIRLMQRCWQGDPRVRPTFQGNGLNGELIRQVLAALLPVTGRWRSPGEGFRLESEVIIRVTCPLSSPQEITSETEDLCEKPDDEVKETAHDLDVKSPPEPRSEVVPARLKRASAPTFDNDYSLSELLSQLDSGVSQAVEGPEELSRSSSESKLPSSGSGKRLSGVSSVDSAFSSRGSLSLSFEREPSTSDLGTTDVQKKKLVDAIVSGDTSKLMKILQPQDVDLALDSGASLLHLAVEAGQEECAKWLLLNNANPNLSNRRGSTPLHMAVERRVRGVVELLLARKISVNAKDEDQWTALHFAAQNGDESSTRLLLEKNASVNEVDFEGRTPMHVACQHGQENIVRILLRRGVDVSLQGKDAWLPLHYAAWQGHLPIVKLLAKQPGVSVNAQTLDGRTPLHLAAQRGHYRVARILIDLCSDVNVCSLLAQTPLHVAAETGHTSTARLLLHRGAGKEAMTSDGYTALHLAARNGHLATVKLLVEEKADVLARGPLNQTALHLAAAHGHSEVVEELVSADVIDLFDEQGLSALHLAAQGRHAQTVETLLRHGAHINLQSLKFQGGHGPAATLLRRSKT
Briefly: Selectivity interaction (KinomeScan (DiscoverX)) EUB0000229b RIPK4. To be noted: at 10 µM.

Experiment [11] deals with Mitogen-activated protein kinase 14 (Homo sapiens, UniProt Q16539). Briefly: Selectivity interaction (Enzymatic assay) EUB0001199aCl MAPK14.
For experiment [12], the target named is Cyclin-dependent kinase 2 (Homo sapiens, UniProt P24941). Briefly: Selectivity interaction (Kinase panel (literature)) EUB0001199aCl CDK2. The conditions noted are these: at 1 µM.

Sequence of Tyrosine-protein kinase JAK1 (P23458 whole entry): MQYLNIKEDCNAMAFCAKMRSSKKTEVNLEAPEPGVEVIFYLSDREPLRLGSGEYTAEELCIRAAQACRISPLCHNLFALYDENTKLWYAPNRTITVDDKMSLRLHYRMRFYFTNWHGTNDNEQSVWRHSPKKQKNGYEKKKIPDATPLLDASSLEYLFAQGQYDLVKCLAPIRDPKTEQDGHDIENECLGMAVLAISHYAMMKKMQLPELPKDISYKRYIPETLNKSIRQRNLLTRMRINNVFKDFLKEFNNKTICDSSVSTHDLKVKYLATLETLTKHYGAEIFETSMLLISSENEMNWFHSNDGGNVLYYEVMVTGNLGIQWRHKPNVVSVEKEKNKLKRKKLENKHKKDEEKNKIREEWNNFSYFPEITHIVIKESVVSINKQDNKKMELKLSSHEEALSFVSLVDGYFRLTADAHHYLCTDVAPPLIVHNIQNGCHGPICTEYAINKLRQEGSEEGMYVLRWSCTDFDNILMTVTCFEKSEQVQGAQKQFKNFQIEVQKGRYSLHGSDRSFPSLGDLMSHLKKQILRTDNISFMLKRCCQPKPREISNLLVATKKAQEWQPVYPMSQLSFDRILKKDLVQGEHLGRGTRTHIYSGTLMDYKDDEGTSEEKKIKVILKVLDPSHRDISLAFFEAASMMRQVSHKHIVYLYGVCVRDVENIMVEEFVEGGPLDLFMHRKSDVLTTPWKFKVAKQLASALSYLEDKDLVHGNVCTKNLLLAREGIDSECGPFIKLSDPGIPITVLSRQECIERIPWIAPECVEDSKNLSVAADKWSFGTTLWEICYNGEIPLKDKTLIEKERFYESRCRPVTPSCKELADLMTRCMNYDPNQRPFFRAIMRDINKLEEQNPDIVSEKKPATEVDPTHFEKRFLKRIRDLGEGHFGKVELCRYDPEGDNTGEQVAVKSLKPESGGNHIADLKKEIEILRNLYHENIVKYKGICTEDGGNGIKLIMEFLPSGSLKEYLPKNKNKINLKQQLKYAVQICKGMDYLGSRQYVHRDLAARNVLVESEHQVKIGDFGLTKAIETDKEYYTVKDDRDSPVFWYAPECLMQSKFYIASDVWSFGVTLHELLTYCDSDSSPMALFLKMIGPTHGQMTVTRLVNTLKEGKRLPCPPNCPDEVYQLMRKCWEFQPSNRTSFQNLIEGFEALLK
Sequence of Mitogen-activated protein kinase 14 (Q16539 whole entry): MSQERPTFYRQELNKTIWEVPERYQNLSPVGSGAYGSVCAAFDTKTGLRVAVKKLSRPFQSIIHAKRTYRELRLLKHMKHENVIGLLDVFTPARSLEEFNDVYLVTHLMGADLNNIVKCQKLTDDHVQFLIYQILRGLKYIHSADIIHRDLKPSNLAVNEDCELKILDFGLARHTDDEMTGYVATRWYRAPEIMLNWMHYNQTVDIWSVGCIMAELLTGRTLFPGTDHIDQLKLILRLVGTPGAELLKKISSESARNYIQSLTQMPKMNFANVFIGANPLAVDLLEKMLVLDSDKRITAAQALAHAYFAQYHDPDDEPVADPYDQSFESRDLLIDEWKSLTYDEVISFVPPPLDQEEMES
Sequence of Ribosomal protein S6 kinase alpha-2 (Homo sapiens) (Q15349 whole entry): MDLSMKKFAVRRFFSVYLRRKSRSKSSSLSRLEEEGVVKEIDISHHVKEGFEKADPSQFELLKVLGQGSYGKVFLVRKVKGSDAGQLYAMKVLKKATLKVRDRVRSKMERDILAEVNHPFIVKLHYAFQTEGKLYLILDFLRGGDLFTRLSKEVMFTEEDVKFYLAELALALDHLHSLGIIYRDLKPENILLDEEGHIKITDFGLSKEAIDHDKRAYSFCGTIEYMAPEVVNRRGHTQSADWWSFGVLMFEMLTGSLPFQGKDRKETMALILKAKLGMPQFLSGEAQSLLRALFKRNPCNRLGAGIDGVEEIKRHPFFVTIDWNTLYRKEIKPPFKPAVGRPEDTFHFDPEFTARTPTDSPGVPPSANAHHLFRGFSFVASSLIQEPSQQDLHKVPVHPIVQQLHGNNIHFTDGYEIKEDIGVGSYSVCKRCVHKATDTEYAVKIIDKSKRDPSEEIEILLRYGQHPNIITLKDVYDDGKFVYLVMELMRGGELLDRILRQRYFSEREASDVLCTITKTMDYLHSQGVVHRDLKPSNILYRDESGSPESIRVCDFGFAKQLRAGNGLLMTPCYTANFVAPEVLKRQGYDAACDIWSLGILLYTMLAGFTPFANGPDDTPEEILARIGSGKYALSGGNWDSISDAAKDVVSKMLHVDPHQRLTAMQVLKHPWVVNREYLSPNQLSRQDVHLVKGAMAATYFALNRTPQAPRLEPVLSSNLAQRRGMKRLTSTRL
Sequence of Polycomb protein SUZ12 (Homo sapiens) (Q15022 whole entry): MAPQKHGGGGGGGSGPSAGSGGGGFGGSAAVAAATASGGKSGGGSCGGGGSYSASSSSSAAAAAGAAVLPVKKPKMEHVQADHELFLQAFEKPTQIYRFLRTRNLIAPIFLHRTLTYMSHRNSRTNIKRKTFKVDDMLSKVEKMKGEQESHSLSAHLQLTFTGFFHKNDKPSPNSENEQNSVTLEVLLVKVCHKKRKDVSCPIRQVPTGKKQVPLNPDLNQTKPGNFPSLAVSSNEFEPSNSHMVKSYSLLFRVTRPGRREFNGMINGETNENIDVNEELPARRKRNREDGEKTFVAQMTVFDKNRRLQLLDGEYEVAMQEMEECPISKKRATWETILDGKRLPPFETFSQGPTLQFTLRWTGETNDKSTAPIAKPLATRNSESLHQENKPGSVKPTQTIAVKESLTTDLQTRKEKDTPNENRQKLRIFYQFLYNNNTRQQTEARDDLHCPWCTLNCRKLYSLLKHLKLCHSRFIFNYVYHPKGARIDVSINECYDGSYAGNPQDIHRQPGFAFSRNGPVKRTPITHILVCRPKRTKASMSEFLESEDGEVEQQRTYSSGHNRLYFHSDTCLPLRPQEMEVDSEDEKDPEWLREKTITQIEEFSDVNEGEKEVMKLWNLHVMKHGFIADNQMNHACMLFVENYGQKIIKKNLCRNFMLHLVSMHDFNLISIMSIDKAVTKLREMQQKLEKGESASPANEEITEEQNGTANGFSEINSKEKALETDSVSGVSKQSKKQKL
Sequence of ALK tyrosine kinase receptor (Q9UM73 19-1620 limits assumed): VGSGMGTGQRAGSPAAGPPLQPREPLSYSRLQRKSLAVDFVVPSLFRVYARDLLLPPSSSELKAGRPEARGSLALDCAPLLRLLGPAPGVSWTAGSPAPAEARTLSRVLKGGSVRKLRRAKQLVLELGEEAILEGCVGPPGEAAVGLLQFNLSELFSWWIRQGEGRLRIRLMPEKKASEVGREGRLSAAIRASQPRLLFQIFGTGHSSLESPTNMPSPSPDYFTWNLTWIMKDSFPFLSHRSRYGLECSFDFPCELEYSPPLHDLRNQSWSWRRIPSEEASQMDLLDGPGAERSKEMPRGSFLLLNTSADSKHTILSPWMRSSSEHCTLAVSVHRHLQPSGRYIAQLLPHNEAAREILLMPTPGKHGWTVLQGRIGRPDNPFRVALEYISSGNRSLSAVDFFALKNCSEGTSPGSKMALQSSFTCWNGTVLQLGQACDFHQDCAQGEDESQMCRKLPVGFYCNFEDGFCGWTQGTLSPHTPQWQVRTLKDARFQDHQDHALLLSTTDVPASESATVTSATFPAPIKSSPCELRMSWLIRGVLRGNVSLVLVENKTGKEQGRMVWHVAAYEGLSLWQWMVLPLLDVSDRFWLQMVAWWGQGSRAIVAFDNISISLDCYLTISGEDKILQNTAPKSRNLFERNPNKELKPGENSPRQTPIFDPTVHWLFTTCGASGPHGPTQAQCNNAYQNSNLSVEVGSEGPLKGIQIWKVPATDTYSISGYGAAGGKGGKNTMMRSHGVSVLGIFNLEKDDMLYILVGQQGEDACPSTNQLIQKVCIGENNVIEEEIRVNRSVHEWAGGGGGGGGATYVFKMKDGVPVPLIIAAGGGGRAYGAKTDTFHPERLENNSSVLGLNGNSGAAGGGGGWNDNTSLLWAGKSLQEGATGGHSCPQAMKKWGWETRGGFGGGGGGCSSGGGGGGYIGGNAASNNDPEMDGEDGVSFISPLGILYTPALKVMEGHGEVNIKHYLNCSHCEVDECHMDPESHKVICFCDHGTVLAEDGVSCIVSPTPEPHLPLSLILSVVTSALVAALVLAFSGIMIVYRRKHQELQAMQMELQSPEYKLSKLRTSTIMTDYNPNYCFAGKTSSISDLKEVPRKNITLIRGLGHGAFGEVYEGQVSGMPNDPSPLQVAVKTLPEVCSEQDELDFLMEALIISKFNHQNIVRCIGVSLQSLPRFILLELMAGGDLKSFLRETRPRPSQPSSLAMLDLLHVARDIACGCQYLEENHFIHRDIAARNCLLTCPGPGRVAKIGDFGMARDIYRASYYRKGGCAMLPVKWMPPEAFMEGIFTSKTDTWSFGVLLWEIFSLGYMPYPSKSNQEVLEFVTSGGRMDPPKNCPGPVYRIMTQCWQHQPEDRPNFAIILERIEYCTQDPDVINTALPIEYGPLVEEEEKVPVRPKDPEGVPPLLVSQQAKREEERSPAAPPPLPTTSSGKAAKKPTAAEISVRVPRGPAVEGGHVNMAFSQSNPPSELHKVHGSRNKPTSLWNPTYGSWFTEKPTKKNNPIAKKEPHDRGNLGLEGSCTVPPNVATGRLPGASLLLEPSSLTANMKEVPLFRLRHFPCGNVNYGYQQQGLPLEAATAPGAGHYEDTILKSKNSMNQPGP

With `C=CC(=O)Nc1cccc(C(=O)Nc2ccc(Nc3cc(-c4[nH]c(SC)nc4C)ccn3)cc2)c1`, the % of control in experiment [1] was 94%; in experiment [2] (at 1 µM), 98%; in experiment [2] (at 5 µM), 96%.
As for `CC(C)(O)[C@H](F)CN1Cc2cc(NC(=O)c3cnn4cccnc34)c(N3CCOCC3)cc2C1=O`, the dTM in experiment [3] was 2.1 K.
`CCC(=O)N1CCN(c2ccc(-n3c(=O)ccc4cnc5ccc(-c6cnc7ccccc7c6)cc5c43)cc2C(F)(F)F)CC1` registered a % of control in experiment [4] of 93%.
`COc1cc(Nc2nc(C)cc(-c3cnn4nc(OC)ccc34)n2)cc(C(F)(F)F)c1` had a % of control in experiment [5] of 93%.
In turn, `O=C(NOC[C@H](O)CO)c1ccc(F)c(F)c1Nc1ccc(I)cc1F` returned a % of control in experiment [6] of 91%.
Turning to `Cn1cc(-n2cnc3c(NCc4nc5cc(Cl)c(Cl)cc5[nH]4)nc(N4CCOCC4)nc32)cn1`, the % of control in experiment [7] was 1.86%.
`CNCCN1CCC(c2cc(CN(C)C(=O)c3cccc(Oc4ccccc4)c3)ccn2)CC1`: the % activity in experiment [8] was above 90%.
As for `CC[C@@H]1[C@H](F)C(=O)N[C@@H]1COc1nccc2cc(C(N)=O)c(OC)cc12` [ZIMLOVISERTIB], the % of inhibition in experiment [9] was -21%.
In turn, `COc1cc(N(C)c2ccnc3ccc(C(F)(F)F)cc23)cc(OC)c1OC` returned a % binding in experiment [10] of 68%.
In general, IC50 refers to the point on the concentration scale where inhibition reaches its midpoint. High values mean weaker potency in that assay, low ones greater potency in that assay. In experiment [11], `CN1Cc2nccc(-c3cn(C)nc3-c3ccc(F)cc3)c2C1=O` had an IC50 of 0.861 µM. Moreover, the % of inhibition in [12] turned out to be 4%.

For the origin of these results see ChEMBL document CHEMBL5465560, “Selectivity Literature for EUbOPEN Chemogenomic Library” (2024).
